{
  "source": "patent US9211313B2",
  "about": "“Methods and compound to inhibit Ca2+ permeable cation conductance” (priority 2011, dated 2015)",
  "type_in_all_cases": "cell-based",
  "key": {"[1]": {"system": "deoxygenation-activated Ca2+-permeable conductance in human SS cells", "assay": "On-cell patch clamp of deoxygenation-activated Ca2+-permeable conductance, CaCl2 in pipette", "conditions": "1 μM in the pipette; -Vp=-25 mV", "method": "Blood cell preparation: Human SS and AA blood was obtained under IRB-approved protocols of Children's Hospital and Beth Israel Deaconess Medical Center. After buffy coat removal and 5 washes in standard human red cell wash solution containing (in mM) 150 choline Cl, 1 MgCl, and 10 Tris-MOPS, pH 7.4, red cells were resuspended in storage solution containing (in mM) 145 KCl, 15 NaCl, and 10 HEPES, pH 7.4, then kept at 4° C. until used. […]\nMouse red cells allowed to settle on coverslips were superfused 15 min with bath solution containing (in mM) either 150 mM Na methanesulfonate, 10 Na EDTA, and 10 Na HEPES, pH 7.4; or 140 NaCl, 4 KCl, 1CaCl2, 1 MgCl2, 10 Na HEPES, pH 7.4. […] The resulting bath pO2 was 18 mm Hg as measured by oxygen electrode (WPI). […]\nOn-cell patch clamp: Borosilicate pipettes (Corning 7052) pulled with a Narishige two stage puller or a Sutter P97 puller and fire-polished to resistances of 10-20 MΩ were front-filled and then backfilled. […] For study of deoxygenation-induced monovalent cation permeation in the absence of bath Ca^2+ and Mg^2+ recorded in SAD and Berkeley mouse cells and in human cells, symmetric bath and pipette solutions contained (in mM) 150 Na methanesulfonate, 10 Na EDTA, and 10 Na HEPES, pH 7.4. […]\nOn-cell patch currents were recorded with the Axopatch 1-D amplifier (Axon Instruments/Molecular Devices, Sunnyvale, Calif.). […]"}, "red cell": {"system": "red cell", "conditions": "data not shown"}, "neurite": {"system": "neurite", "assay": "Neurite initiation and neurite length", "description": "The peptide GsMTx4 of the present invention can be prepared for pharmaceutical use by incorporation with a pharmaceutically acceptable carrier or diluent. The peptide can be formulated into tablets, capsules, caplets and the like. Suitable carriers for tablets include calcium carbonate, starch, lactose, talc, magnesium stearate and gum acacia. The peptide can also be formulated for oral, parenteral or intravenous administration in aqueous solutions, aqueous alcohol, glycol or oil solutions or emulsions. The peptide can also be formulated for inhaling by encapsulating to facilitate alveolar absorption as has been done for insulin (Inhale Therapeutic Systems, San Carlos, Calif., inhale.com). Pharmaceutical compositions suitable for such routes of administration are well known in the art. For example, suitable forms and compositions of pharmaceutical preparations can be found in Remington's Pharmaceutical Science, 1980, 15^thed. Mack Publishing Co., Easton, Pa. Thus, the peptide GsMTx4 can be administered orally, subcutaneously, parenterally, intravenously, intramuscularly or intranasally. The peptide may also be applied to medical devices that will come into contact blood. Both L and D enantiomers of GsMTx4's and its variants can be used for the present invention. We have previously shown that both L- and D-GsMTx4 block mechanosensitive channel (MSC) activity. Although, we have noted differences in the effects of these enantiomers, both forms are effective. For example, we have observed that the ability of the mirror image form (D-enantiomer) to inhibit mechanically activated ion channels is similar to the wild type peptide (L-form) (Suchyna et al 2004). […] Thus, both L and the D forms can be used in the present invention."}},
  "data": [
    {"substance": "Grammastola spatulata mechanotoxin 4 (GCLEFWWKCNPNDDKCCRPKLKCSKLFKLCNFSF; listed as Grammastola spatulata) [GsMTx-4]", "values": [
      {"measurement": "effect on deoxygenation-induced increase in NPo, Ca2+ in the pipette", "setting": "[1]", "result": "prevented"},
      {"measurement": "effect on red cell shape", "setting": "red cell", "result": "did not alter"},
      {"measurement": "effect on neurite length", "setting": "neurite", "result": "no significant effect"},
      {"measurement": "neurite initiation", "setting": "neurite", "result": "stimulate"}
    ]}
  ]
}
